Experimental data reported in PubChem BioAssay AID540332 (The Scripps Research Institute Molecular Screening Center, 2011).
Activity calls are given as the source filed them. No rule for the calls is given here.

What was measured:
Assay in all cases: selectivity profile across receptors and CYP450s – biochemical, Ricerca HitProfilingScreen, CYP450, set 2, selectivity assay for S1P4 agonist project, profiling panel (AID 540332)
[1] = molecular target: Beta-2 adrenergic receptor (Homo sapiens) (UniProt P07550); conditions: Adrenergic beta2; at 30 µM; stronger effect = higher value
[2] = molecular target: Muscarinic acetylcholine receptor M3 (Homo sapiens) (UniProt P20309); conditions: at 30 µM, stronger effect = higher value
Dopamine D2 = conditions: at 30 µM; stronger effect = higher value
[3] = system: Alpha-2A adrenergic receptor (Homo sapiens) + Histamine H1 receptor (Homo sapiens) + Mu-type opioid receptor (Homo sapiens); conditions: at 30 µM; stronger effect = higher value
[4] = molecular target: Cytochrome P450 1A2 (Homo sapiens) (UniProt P05177); conditions: CYP450 1A2; at 30 µM; stronger effect = higher value
Sigma 1 = conditions: at 30 µM; stronger effect = higher value
[5] = molecular target: Alpha-2A adrenergic receptor (Homo sapiens) (UniProt P08913); conditions: Adrenergic alpha2A; at 30 µM; stronger effect = higher value
Glutamate, NMDA = conditions: Phencyclidine; at 30 µM; stronger effect = higher value
[6] = molecular target: Muscarinic acetylcholine receptor M2 (Homo sapiens) (UniProt P08172); conditions: at 30 µM, stronger effect = higher value
[7] = system: Norepinephrine Transporter (NET); conditions: at 30 µM; stronger effect = higher value
Adenosine A2A = conditions: at 30 µM; stronger effect = higher value
Prostanoid EP4 = conditions: at 30 µM; stronger effect = higher value
[8] = system: Calcium Channel L-Type, Dihydropyridine; conditions: at 30 µM; stronger effect = higher value
Cannabinoid CB1 = conditions: at 30 µM; stronger effect = higher value
[9] = molecular target: Voltage-gated inwardly rectifying potassium channel KCNH2 (Homo sapiens) (UniProt Q12809); conditions: Potassium Channel hERG; at 30 µM; stronger effect = higher value
[10] = molecular target: 5-hydroxytryptamine receptor 2B (Homo sapiens) (UniProt P41595); conditions: Serotonin (5-Hydroxytryptamine) 5-HT2B; at 30 µM; stronger effect = higher value
GABAA = conditions: Central, at 30 µM, stronger effect = higher value
CYP450 2C19 = conditions: at 30 µM; stronger effect = higher value
[11] = molecular target: Cytochrome P450 2D6 (Homo sapiens) (UniProt P10635); conditions: CYP450 2D6; at 30 µM; stronger effect = higher value
Adrenergic alpha1B = conditions: at 30 µM; stronger effect = higher value
Adrenergic alpha1A = conditions: at 30 µM; stronger effect = higher value
[12] = molecular target: Cytochrome P450 2C9 (Homo sapiens) (UniProt P11712); conditions: CYP450 2C9; at 30 µM; stronger effect = higher value
Opiate mu (OP3, MOP) = conditions: at 30 µM; stronger effect = higher value
Adenosine A1 = conditions: at 30 µM; stronger effect = higher value
[13] = molecular target: Cytochrome P450 3A4 (Homo sapiens) (UniProt P08684); conditions: CYP450 3A4; at 30 µM; stronger effect = higher value
[14] = molecular target: D(1A) dopamine receptor (Homo sapiens) (UniProt P21728); conditions: Dopamine D1; at 30 µM; stronger effect = higher value
Nicotinic Acetylcholine = conditions: at 30 µM; stronger effect = higher value
Adrenergic beta1 = conditions: at 30 µM; stronger effect = higher value
Sodium Channel, Site 2 = conditions: at 30 µM; stronger effect = higher value
Histamine H1 = conditions: at 30 µM; stronger effect = higher value

Chain of Cytochrome P450 1A2 (Homo sapiens) (P05177 whole entry, looked up): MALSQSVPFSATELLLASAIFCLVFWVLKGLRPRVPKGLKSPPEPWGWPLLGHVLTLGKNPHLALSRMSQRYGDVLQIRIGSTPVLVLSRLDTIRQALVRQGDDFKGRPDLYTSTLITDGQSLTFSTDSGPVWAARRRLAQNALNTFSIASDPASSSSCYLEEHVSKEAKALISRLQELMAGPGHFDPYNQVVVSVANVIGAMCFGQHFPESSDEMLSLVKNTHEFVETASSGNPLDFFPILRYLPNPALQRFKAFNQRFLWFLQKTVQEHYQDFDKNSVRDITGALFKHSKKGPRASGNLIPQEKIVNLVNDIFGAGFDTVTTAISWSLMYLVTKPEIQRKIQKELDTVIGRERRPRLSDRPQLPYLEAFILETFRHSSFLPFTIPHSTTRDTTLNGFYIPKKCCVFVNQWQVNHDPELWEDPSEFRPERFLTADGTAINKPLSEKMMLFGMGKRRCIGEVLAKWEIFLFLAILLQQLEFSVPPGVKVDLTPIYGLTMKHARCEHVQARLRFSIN
Chain of Beta-2 adrenergic receptor (Homo sapiens) (P07550 whole entry, looked up): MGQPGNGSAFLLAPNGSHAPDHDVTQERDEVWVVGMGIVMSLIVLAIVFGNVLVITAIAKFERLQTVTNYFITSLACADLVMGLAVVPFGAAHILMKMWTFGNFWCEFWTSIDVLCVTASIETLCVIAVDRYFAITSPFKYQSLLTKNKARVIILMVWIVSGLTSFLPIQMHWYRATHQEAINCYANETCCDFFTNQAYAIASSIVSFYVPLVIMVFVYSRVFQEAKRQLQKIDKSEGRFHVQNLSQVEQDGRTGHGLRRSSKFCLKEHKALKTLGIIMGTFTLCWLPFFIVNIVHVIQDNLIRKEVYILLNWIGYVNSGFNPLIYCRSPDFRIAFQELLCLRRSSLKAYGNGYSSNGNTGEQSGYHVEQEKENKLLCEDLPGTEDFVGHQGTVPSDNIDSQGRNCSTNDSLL
Chain of 5-hydroxytryptamine receptor 2B (Homo sapiens) (P41595 whole entry, looked up): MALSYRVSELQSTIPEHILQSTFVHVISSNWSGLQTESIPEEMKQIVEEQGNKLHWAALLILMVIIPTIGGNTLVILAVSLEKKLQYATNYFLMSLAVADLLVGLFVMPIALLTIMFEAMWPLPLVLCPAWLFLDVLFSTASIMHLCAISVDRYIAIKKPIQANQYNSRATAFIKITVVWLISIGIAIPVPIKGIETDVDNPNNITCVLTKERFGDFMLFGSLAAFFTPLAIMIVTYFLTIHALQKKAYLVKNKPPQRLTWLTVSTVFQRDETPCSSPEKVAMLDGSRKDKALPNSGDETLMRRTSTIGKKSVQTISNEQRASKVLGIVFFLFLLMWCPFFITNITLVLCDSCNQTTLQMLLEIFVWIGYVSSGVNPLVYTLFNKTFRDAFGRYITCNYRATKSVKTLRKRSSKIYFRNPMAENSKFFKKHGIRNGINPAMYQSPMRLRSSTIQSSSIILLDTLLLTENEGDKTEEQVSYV
Chain of Muscarinic acetylcholine receptor M2 (Homo sapiens) (P08172 whole entry, looked up): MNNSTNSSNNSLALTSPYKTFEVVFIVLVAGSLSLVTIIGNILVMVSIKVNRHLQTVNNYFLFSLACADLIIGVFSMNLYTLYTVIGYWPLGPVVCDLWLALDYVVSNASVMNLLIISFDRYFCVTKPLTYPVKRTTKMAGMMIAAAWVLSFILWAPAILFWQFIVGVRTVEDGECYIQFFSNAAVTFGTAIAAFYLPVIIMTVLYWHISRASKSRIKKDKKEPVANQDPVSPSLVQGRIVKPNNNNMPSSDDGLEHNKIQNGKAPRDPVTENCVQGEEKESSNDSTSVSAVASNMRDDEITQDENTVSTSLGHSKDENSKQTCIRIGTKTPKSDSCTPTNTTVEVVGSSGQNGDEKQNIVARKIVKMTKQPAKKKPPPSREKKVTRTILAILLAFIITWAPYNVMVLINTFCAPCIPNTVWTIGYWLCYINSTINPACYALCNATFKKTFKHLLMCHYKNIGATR
Chain of Muscarinic acetylcholine receptor M3 (Homo sapiens) (P20309 whole entry, looked up): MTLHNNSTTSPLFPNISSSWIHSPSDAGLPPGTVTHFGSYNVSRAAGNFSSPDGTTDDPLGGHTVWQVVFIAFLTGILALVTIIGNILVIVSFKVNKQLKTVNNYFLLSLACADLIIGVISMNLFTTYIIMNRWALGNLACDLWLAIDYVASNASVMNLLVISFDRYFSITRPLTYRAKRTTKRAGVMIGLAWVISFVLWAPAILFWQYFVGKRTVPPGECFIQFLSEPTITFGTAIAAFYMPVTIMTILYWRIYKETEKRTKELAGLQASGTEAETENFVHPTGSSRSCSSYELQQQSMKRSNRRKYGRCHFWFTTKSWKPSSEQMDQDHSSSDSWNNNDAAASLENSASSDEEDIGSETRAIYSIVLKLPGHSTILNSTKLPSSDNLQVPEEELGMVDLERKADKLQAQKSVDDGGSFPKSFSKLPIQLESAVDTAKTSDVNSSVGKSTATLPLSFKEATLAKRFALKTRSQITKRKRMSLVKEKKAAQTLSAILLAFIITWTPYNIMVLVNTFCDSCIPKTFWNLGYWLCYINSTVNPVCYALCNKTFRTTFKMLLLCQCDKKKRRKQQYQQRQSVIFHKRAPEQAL
Chain of Cytochrome P450 2D6 (Homo sapiens) (P10635 whole entry, looked up): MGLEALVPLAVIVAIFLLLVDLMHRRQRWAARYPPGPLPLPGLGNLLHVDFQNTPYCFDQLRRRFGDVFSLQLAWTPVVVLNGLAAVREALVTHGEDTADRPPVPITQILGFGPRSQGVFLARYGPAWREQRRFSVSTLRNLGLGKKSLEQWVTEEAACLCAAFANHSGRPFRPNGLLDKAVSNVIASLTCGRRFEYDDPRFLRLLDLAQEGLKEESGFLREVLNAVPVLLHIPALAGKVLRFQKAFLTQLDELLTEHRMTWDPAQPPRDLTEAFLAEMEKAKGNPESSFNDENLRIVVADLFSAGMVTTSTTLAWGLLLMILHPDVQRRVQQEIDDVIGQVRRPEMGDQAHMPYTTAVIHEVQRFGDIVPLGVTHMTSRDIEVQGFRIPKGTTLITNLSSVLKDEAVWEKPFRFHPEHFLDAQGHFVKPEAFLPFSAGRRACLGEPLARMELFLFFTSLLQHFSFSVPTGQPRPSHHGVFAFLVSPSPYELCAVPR
Chain of Cytochrome P450 2C9 (Homo sapiens) (P11712 whole entry, looked up): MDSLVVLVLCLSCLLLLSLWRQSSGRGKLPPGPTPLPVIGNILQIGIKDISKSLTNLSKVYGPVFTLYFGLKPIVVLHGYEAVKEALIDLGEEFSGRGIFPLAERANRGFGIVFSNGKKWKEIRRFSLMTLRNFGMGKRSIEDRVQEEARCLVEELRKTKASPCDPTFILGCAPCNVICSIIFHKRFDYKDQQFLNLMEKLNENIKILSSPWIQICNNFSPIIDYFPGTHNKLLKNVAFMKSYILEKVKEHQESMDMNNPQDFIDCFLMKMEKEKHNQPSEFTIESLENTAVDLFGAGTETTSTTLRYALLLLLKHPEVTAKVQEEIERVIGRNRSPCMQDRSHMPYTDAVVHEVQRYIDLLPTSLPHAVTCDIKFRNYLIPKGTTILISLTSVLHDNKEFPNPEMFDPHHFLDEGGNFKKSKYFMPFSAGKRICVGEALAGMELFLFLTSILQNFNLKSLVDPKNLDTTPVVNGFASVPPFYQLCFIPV
Chain of D(1A) dopamine receptor (Homo sapiens) (P21728 whole entry, looked up): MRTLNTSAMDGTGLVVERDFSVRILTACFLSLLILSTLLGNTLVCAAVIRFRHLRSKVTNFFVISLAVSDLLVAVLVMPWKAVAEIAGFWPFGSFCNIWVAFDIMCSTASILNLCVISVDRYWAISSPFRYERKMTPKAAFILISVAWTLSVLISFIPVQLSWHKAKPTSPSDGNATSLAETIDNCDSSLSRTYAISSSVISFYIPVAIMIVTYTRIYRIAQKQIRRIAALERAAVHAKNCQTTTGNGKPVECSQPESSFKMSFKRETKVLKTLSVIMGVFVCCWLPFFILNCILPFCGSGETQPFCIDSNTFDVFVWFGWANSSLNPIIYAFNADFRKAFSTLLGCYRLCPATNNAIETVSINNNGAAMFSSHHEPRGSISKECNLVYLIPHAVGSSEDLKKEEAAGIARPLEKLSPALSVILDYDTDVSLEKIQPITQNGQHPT
Chain of Alpha-2A adrenergic receptor (Homo sapiens) (P08913 whole entry, looked up): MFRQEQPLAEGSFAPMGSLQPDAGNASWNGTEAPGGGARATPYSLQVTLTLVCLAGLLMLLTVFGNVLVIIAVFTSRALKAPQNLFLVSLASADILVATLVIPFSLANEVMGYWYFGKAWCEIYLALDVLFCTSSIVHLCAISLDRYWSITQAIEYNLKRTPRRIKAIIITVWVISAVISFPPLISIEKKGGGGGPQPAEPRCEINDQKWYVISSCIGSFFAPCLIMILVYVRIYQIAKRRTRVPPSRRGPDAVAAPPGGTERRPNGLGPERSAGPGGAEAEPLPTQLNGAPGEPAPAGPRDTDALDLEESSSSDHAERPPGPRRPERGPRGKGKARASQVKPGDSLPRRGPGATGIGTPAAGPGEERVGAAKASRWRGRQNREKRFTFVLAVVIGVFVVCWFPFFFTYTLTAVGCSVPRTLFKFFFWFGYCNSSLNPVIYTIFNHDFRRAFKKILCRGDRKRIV
Chain of Cytochrome P450 3A4 (Homo sapiens) (P08684 whole entry, looked up): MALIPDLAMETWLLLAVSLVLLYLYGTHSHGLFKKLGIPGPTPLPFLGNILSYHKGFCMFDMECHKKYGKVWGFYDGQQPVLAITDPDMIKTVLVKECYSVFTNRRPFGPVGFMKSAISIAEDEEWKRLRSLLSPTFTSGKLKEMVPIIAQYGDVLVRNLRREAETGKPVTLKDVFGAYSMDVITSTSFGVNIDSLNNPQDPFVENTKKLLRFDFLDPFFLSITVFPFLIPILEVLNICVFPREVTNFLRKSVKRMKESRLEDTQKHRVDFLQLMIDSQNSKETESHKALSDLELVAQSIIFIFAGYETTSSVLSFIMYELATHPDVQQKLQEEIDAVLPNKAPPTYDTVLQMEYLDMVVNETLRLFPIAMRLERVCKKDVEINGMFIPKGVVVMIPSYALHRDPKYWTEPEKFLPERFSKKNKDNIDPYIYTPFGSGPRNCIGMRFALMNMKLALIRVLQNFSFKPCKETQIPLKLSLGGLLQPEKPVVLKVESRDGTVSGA

COCCN=C1S/C(=C\c2cc(C)n(-c3ccc(F)cc3F)c2C)C(=O)N1C
inhibition [1]: 6% (inactive) | inhibition [2]: 23% (inactive) | inhibition (Dopamine D2): 12% (inactive) | inhibition [3]: 11% (inactive) | inhibition [4]: 14% (inactive) | inhibition (Sigma 1): 2% (inactive) | inhibition [5]: 40% (inactive) | inhibition (Glutamate, NMDA): 6% (inactive) | inhibition [6]: 13% (inactive) | inhibition [7]: 71% | inhibition (Adenosine A2A): 26% (inactive) | inhibition (Prostanoid EP4): 29% (inactive) | inhibition [8]: 64% | inhibition (Cannabinoid CB1): 65% | inhibition [9]: 29% (inactive) | inhibition [10]: 66% | inhibition (GABAA; Flunitrazepam): -8% (inactive) | inhibition (GABAA; Muscimol): 3% (inactive) | inhibition (CYP450 2C19): -24% (inactive) | inhibition [11]: 8% (inactive) | inhibition (Adrenergic alpha1B): 42% (inactive) | inhibition (Adrenergic alpha1A): 40% (inactive) | inhibition [12]: -28% (inactive) | inhibition (Opiate mu (OP3, MOP)): 69% | inhibition (Adenosine A1): 29% (inactive) | inhibition [13]: 56% | inhibition [14]: 27% (inactive) | inhibition (Nicotinic Acetylcholine): -53% | inhibition (Adrenergic beta1): 39% (inactive) | inhibition (Sodium Channel, Site 2): 59% | inhibition (Histamine H1): 52%
